Reference: patent publication US7576177B2, “Hsp peptides and analogs for modulation of immune responses via antigen presenting cells” (Andromeda Biotech Ltd., priority 2002, dated 2009)
Like-named read-outs stand apart in the source and are kept apart here.

Experiments:
[1] = tested on: BALB/c DO.11.10 bone marrow cells cultured for dendritic cells, cocultured with DO.11.10 T cells; assay: Education of mouse dendritic cells and stimulation of T-cells, cytokine content of supernatant; type: cell-based; settings: for IFN secretion of T cells / IL-4 secretion of T cells / IL-10 secretion of T cells / IL-12 secretion of T cells: 0.3 nM Ova peptide
Method: Whelan et al. (J. Immunol 164, 6453-6460, 2000) addressed the problem in mice by an experiment in which mouse bone marrow cells were grown for 6 days in culture with GM-CSF to give immature dendritic cells. These dendritic cells were then incubated overnight with LPS (known to drive cells to DC1) or with a nematode antigen. The reason for the choice of nematode antigen was that injection of this antigen in vivo gives rise to a Th2 response in animals. After this so-called “education” of the dendritic cells, they were washed and subsequently incubated with naive T cells in the presence of antigenic stimulus. The experiment was possible because of the use of transgenic mice in which all the T cells respond to the same peptide (OVA323-339) which absolves the system from any question of bias of the T cell response at the level of the T cells. Any bias should be a consequence of the “education” of the dendritic cells. After three days of incubation the cytokine responses produced by the T cells, were measured by ELISA. […] In contrast, nematode antigen incubation gave rise to more IL-4 (Th2) than did controls while the LPS incubation inhibited the IL4 response. Therefore, the nematode antigen was said to drive cells to DC2. A similar method was used for testing the compounds of the present invention: • 1. Bone marrow cells were extracted from the leg bones of DO.11.10 mice transgenic for the TcR. All cells from these mice respond to the OVA peptide ([…]). • 2. Bone marrow cells were plated at 10^6 cells/ml in 100 mm diameter tissue culture petri dishes in Iscove's medium supplemented with 10% FCS, […], 1 mM sodium pyruvate, penicillin/streptomycin (according to manufacturer's recommendations), non-essential amino acids, 50 μM β-mercaptoethanol and 10 ng/ml mGM-CSF. • 3. After 4 days, the medium was carefully removed and replaced with fresh medium • 4. After 6 days, the non-adherent cells were harvested and used as immature dendritic cells • 5. The immature dendritic cells are plated at 1×10^6 cells/ml, 1 ml/well in 24 well plates in the above medium with various reagents added at various concentrations and incubated overnight. This is the stage in which the dendritic cells are “educated” • 6. The next day the cells were harvested and washed 3 times then resuspended at 5×10^4 cells/ml in 1 ml of the above medium but without the addition of GM-CSF to be cocultured with T cells • 7. […] 5×10^5 T cells were cultured with the dendritic cells from step 6 in the presence of various concentrations of the OVA peptide (0, 0.3 nM, 3 nM and 30 nM). • 9. After 3 days PMA (50 ng/ml) and ionomycin (500 ng/ml) were added to further stimulate the cells. • 10. The next day the cell supernatants were collected and assayed for cytokine content (Interferon γ, IL4, IL-10 and IL-12).
The compound was tested for stimulation of DO.11.10 bone marrow cells according to the assay described above (Production and education of mouse dendritic cells and stimulation of T-cells).
BALB/c DO.11.10 bone marrow cells were cultured for dendritic cells and then stimulated with LPS 1 μg/ml, LPS 10 μg/ml, hsp60 3 μg/ml, hsp60 10 μg/ml, p277 5 μg/ml and p277 50 μg/ml. The cells were then transferred to wells with T cells from fresh BALB/c DO.11.10 mice and stimulated with OVA peptide at different concentrations (0, 0.3 nM, 3 nM, 30 nM). Supernatant was collected after 48 hours for assay. 30 μl was taken for IFN, 40 μl for IL4 and IL-10 and 50 μl for IL-12 assays. The results are presented in the following tables, as amount of cytokine (pg/ml), and in FIG. 1.

[2] = tested on: peripheral blood monocytes; assay: Peripheral blood monocytes: IP-10 after direct stimulation or preincubation then LPS; type: cell-based, human
Method: Peripheral blood mononuclear cells were prepared from leucocytes of blood lots obtained from the blood bank. The cells were plated at a concentration of 4×10^6 cell/ml/well in 24 well tissue culture dishes in medium containing 10% fetal calf serum. The cells were allowed to adhere for 2 hours at 37° C. After this time, non-adherent cells were washed away and the adherent cells incubated in fresh medium containing 10% human AB serum for 6-8 days, changing the medium after 4 days. These culture conditions were reported to give rise to monocytes.
For stimulation the medium was replaced with medium without serum. For preincubation, the cells were exposed overnight to the tested compounds at various concentrations and then LPS was added. The supernatant was collected after a further overnight incubation and tested for various cytokines by ELISA assays.

[3] = tested on: THP-1 cells
Method: Alternatively, APCs exposed to Hsp peptides and analogs are tested for direct influence on cytokine production. For example, pre-monocyte like derived cells (e.g. human monocytic cell line THP-1), which can be differentiated to monocytes by treatment with 100 nM phorbol ester (12-O-tetradecanoylphorbol-13-acetate, PMA) for 72 hours, are used. […] Differentiated cells are preincubated with the tested compounds or incubated after PMA treatment following subsequent stimulus with LPS. Secreted amounts of cytokines (such as TNF, and IP-10) are measured. Another example for direct measuring of cytokines secreted from APCs exposed to Hsp peptides and analogs involve measurement of cytokines (e.g. IP-10 and IL-8) secretion in human peripheral blood mononuclear cells cultured first with GM-CSF and IL4 and then with LPS, zymosan or tested peptide. These cells are also used for investigation of cell surface antigens (e.g. CD83 and CD86) indicating their maturation.
The human cell line THP-1 was used for this assay. These cells are pre-monocyte like derived from acute monocytic leukemia and can be differentiated to monocytes by treatment with 100 nM phorbol ester (12-O-tetradecanoylphorbol-13-acetate, PMA) for 72 hours. During this time the cells change morphology from round cells growing in suspension to larger, flat, adherent cells.

[4] = tested on: mouse monocyte line J774; assay: Secretion of oxygen free radicals (oxidative burst) from mouse monocyte line; type: cell-based; settings: J774, FIG. 5
[5] = tested on: cell lines
[6] = dendritic cells educated with 5 μg/ml
[7] = dendritic cells educated with 50 μg/ml
[8] = differentiated THP-1 cells incubated with peptide
[9] = preincubation, subsequent stimulus with 10 ng/ml LPS

Sequence: VLGGGVALLRVIPALDSLTPANED [p277(Val^6-Val^11)]
- IL-4 produced by T cells after exposure of dendritic cells (in words) ([1]; compared with non-exposed dendritic cells): more IL-4 than non-exposed dendritic cells
- IFN secretion of T cells [1, 6]: 722.22 pg/mL
- IL-4 secretion of T cells [1, 6]: 36.96 pg/mL
- IL-10 secretion of T cells [1, 6]: 32.53 pg/mL
- IL-12 secretion of T cells [1, 6]: 177.50 pg/mL
- IFN secretion of T cells [1, 7]: 373.89 pg/mL
- IL-4 secretion of T cells [1, 7]: 82.29 pg/mL
- IL-10 secretion of T cells [1, 7]: 27.15 pg/mL
- IL-12 secretion of T cells [1, 7]: 82.50 pg/mL
- amount of IP-10 produced in response to stimulus with LPS after preincubation ([2]; overnight preincubation, then LPS, FIG. 4): did increase the amount of IP-10
- IP-10 after direct stimulation ([2]; peripheral blood monocytes, no preincubation, FIG. 4): did not give rise directly to II-10
- IP-10 in response to hsp60 after preincubation ([2]; preincubation with p277(Val^6-Val^11), then hsp60): did not give rise to IP-10
- direct IP-10 secretion [3, 8]: did not secrete TNF, or IP-10 directly
- direct TNF secretion [3, 8]: did not secrete TNF
- % stimulation of IP-10 secretion ([3]; preincubation with 0.0128 ng/ml, then 10 ng/ml LPS): −48%
- % stimulation of IP-10 secretion ([3]; preincubation with 0.064 ng/ml, then 10 ng/ml LPS): 52%
- % stimulation of IP-10 secretion ([3]; preincubation with 0.32 ng/ml, then 10 ng/ml LPS): 61%
- % stimulation of IP-10 secretion ([3]; preincubation with 1.6 ng/ml, then 10 ng/ml LPS): 46%
- % stimulation of IP-10 secretion ([3]; preincubation with 8 ng/ml, then 10 ng/ml LPS): 77%
- % stimulation of IP-10 secretion ([3]; preincubation with 40 ng/ml, then 10 ng/ml LPS): 141%
- % stimulation of IP-10 secretion ([3]; preincubation with 200 ng/ml, then 10 ng/ml LPS): 45%
- % stimulation of IP-10 secretion ([3]; preincubation with 1000 ng/ml, then stimulation with 10 ng/ml LPS): 45%
- amount of IP-10 secreted after preincubation and LPS (in words) [3, 9]: increased amount of IP-10 secreted
- amount of TNF after preincubation and LPS [3, 9]: not significantly affected
- inhibition of the oxidative burst (secretion of oxygen free radicals) [4]: effective
- direct stimulation of TNFα [5]: ineffective
- inhibition of TNFα secreted as a result of stimulation by LPS or hsp60 [5]: ineffective
